Assay results: patent publication EP0845217A1, “Inhibiting undesirable taste in oral compositions” (priority 1996, dated 1998)
pKi: −log10 of the molar value. Counter-ions that a name gives are not always drawn.

How the values were obtained:
alkaline phosphatase = alkaline phosphatase (Bos taurus, UniProt P19111); type: biochemical, bovine; conditions: PNPP substrate
Procedure: Enzyme kinetics experiments are done using purified alkaline phosphatase from bovine intestine and the substrate para-nitrophenyl phosphate (PNPP). The formation of colored para-nitrophenol (PNP) from colorless PNPP is followed by measuring the color formation in the presence of inhibitor at several concentrations.
Specifically, enzyme reactions are done in a volume of 200 ul containing 12.5 mU/ml alkaline phosphatase, PNPP at concentrations between 0.5-200 mM, and an inhibitor at concentrations between 0-100 mM. […] Phosphoserine is the natural substrate for this enzyme. The final buffer solution is 0.9 M diethanolamine and 0.5 mM […], pH 9.8, mixed 3:1 (v:v) with water. Reactions are done in a 96-well microtiter plate. The enzyme reaction is initiated by the addition of the enzyme. Each reaction mixture is done in triplicate. The enzyme reaction is monitored by measuring the optical density (OD) at 405 nm, with a reference OD of 490 nm. The OD's are read every 30 seconds over a 15 minute period at room temperature. PNP concentration is determined based on a standard curve correlating OD405/490 vs. PNP concentration. […] The data is then transformed and plotted as the Kmapp / Vmax. vs. inhibitor concentration. From these plots the dissociation constant of the enzyme-inhibitor complex, Ki, is determined. The x-intercept on this plot equals (-Ki). […]

[1] = biological target: protein tyrosine phosphatase (Yersinia enterocolitica, UniProt P15273); assay: Protein tyrosine phosphatase enzyme kinetics with PNPP substrate; type: biochemical; conditions: pH 7.5
Procedure: Enzyme kinetics are done using purified protein tyrosine phosphatase from the bacteria, Yersinia enterocolitica, recombinant form, with PNPP as the substrate. The enzyme kinetics experiments are done similarly to the kinetics experiments for alkaline phosphatase and acid phosphatase described above.
Each final reaction mixture contains 20 mM Tris, 0.1 % beta-mercaptoethanol, and 0.1% bovine serum albumin at pH 7.5. The ionic strength of each reaction mixture is the same and is balanced by the addition of the appropriate amount of NaCl. Activity of this enzyme is extremely sensitive to ionic strength. Each reaction is begun with the addition of tyrosine phosphatase. The formation of PNP is monitored by measuring the OD405/490 at 30 second intervals over a 30 minute period. The enzyme velocity is linear over this time period under these conditions. The Ki values are calculated as described above for alkaline phosphatase (Table 2).

[2] = tested on: purified protein tyrosine phosphatase; assay: Purified protein tyrosine phosphatase, dephosphorylation of phosphotyrosine-containing peptide substrates; type: biochemical; conditions: experiments not described
mud puppy taste cells = assay: Response of isolated taste cells to bitter-tasting compounds, intracellular calcium fluorescence; type: cell-based; conditions: for effect on taste cell response to denatonium benzoate: inhibitor mixed with denatonium benzoate; for effect on taste cell response to dextromethorphan: inhibitor mixed with dextromethorphan; for taste cell response to bitter tasting compound: bitter compound alone
Procedure: Taste cells are isolated from the mud puppy, a type of salamander (S. C. Kinnamon, et al, Chemical Senses 13: 355 - 366, 1988). Briefly, a fresh mud puppy tongue is incubated with collagenase, the non-gustatory epithelium is peeled off the surface, and individual taste buds are gently drawn into a micropipette using a dissecting microscope at 50X magnification. The taste buds are plated into small vessels, that are coated with Cell-Tak, containing culture media. The taste cells can remain viable up to 18 days and maintain normal functions (C. Ruiz, et al, Experimental Cell Biology of Taste and Olfaction, Current Techniques and Protocols, A. I. Spielman and J. G. Brand, eds., CRC Press, 1995, pp. 79 - 84). The taste cells are labeled intracellularly with a marker compound that fluoresces in a dose-dependent fashion to calcium ion concentration. Since an increase in the intracellular calcium ion concentration is one of the last steps in converging biochemical signal transduction pathways for bitterness, the fluorescent marker correlates with taste cell response to bitterness (D. Restrepo, et al, Experimental Cell Biology of Taste and Olfaction, Current Techniques and Protocols, A. I. Spielman and J. G. Brand, eds., CRC Press, 1995, pp. 387 - 398). Labeled taste cells are observed microscopically using image analysis software. Using a micropipette, taste cells are exposed to bitter-tasting compounds by adding the compounds in media near the taste cell. Cells that respond to the bitter-tasting compound show an increase in fluorescence intensity. Bitter inhibitors are tested by adding them to the test solution with the bitter-tasting compound. The response of individual taste cells to bitter-tasting compounds and to bitter-tasting compounds plus inhibitor are monitored by measuring the fluorescent intensity using a microscope. Images are stored electronically and image analysis software is used to analyze the data (D. Restrepo, et al, Biophysical Journal 64: 1961 - 1966, 1993).

[3] = tested on: Pig taste tissue tyrosine phosphatase; assay: Protein tyrosine phosphatase activity of pig taste tissue homogenate, phosphotyrosine peptide substrates, ELISA; type: biochemical; conditions: for % Total Phosphatase Activity: pig taste tissue 615 ug/ml protein, 10°C for 20 min
Procedure: Taste tissue (circumvallate papillae) is dissected from fresh pig tongue and homogenized in buffer. Protein tyrosine phosphatase activity is measured using peptides containing phosphotyrosine as the substrate. Two substrates are used. […] The removal of phosphate from the phosphotyrosines is determined by measurement of phosphotyrosine concentration, using an ELISA, after reaction of the peptide substrate with pig taste tissue. The activity of purified tyrosine phosphatase is determined in each experiment as a control.
In this experiment, pig taste tissue and peptide substrate are combined in a buffer of 20 mM Tris, 0.1% beta-mercaptoethanol, and 1 mg/ml BSA, pH 7.0. A total volume of 100 ul in each well of a 96-well microtiter plate is used. […] The enzyme reaction is done at 10°C for 20 min. The reaction is stopped by the addition of 25 ul 400 uM sodium orthovanadate. […]
In another experiment using the same conditions as described above, the tyrosine dephosphorylation of peptide substrate 1 is measured after 1, 2, 3, 4, 5, 6, 7 and 8 minute reactions at room temperature with pig taste tissue (41 ug/ml protein) as the enzyme source.

Chain of alkaline phosphatase (P19111 20-506): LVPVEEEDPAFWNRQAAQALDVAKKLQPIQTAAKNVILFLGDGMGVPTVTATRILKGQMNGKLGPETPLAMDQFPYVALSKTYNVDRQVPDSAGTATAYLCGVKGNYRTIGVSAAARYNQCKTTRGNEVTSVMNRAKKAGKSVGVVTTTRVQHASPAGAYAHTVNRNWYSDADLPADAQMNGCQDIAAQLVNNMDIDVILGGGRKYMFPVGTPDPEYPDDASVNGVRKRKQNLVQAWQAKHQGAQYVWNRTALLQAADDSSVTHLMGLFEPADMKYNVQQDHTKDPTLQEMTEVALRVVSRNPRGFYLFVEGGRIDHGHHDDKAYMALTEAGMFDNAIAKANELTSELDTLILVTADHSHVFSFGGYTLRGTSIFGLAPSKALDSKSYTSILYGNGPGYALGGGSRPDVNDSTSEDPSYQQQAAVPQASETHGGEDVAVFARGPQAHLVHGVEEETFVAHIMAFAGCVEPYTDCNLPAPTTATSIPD
Chain of protein tyrosine phosphatase (P15273 whole entry): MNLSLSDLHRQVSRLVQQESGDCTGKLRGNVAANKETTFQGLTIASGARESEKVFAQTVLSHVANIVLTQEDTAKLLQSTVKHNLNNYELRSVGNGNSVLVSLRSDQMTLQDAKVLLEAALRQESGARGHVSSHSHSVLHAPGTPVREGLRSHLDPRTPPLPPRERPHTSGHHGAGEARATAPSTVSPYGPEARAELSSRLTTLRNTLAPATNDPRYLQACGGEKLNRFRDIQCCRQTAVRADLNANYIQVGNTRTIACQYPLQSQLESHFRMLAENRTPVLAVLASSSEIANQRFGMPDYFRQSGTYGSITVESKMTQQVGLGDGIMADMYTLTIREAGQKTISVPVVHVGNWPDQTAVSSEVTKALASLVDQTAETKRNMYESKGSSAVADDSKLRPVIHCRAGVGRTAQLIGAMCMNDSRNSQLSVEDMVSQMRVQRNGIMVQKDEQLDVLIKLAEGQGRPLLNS

With C=CCc1ccc(OP(=O)(O)O)c(OC)c1 [EMP, eugenylmonophosphate] the “type of inhibition of alkaline phosphatase” value (alkaline phosphatase) was “competitively inhibited”, the pKi ([1]; 22°C) was 2.43 and the pKi ([1]; 37°C) was 2.48. The “effect on tyrosine phosphatase activity against peptide substrates” value (“effect on tyrosine phosphatase activity” below) [2] was “inhibits the activity”.

With CC1CCC(C(C)C)C(OP(=O)(O)O)C1 (stereo not drawn) [MMP, menthylmonophosphate] the “type of inhibition of alkaline phosphatase” value (alkaline phosphatase) was “competitively inhibited”.

In the case of O=P(O)(O)CP(=O)(O)O [Methylene diphosphonic acid], the “share of taste cells tested with small decrease in response to denatonium benzoate” value (mud puppy taste cells; denatonium benzoate) was 50% and the “effect on taste cell response to denatonium benzoate” value (“effect … to denatonium benzoate” for short) (mud puppy taste cells) was “small decrease in response”.

With NCCC(O)(P(=O)(O)O)P(=O)(O)O [Pamidronic acid, pamidronic acid] the “effect … to denatonium benzoate” value (mud puppy taste cells) was “small reduction in response” and the “effect on taste cell response to dextromethorphan” value (“effect … to dextromethorphan” below) (mud puppy taste cells) was “small reduction in response”.

In the case of N[C@@H](COP(=O)(O)O)C(=O)O [Phosphoserine, reference compound], the “type of inhibition of alkaline phosphatase” value (alkaline phosphatase) was “competitively inhibited”.

With Cc1ccc(C(C)C)c(OP(=O)(O)O)c1 [ThMP, thymylmonophosphate] the “type of inhibition of alkaline phosphatase” value (alkaline phosphatase) was “competitively inhibited” and the pKi ([1]; 22°C) was 2.44.

For F [calcium fluoride], the “% Total Phosphatase Activity” value ([3]; Peptide Substrate 1) was 109%, the “% Total Phosphatase Activity” value ([3]; Peptide Substrate 2) was 96% and the “time until all phosphates are removed from peptide substrate 1” value ([3]; pig taste tissue 41 ug/ml protein, room temperature, calcium fluoride added, concentration not given) was 2 min. The “effect on tyrosine phosphatase activity” value [2] was “does not affect tyrosine phosphatase activity”.

CN(C)CCC(c1ccc(Cl)cc1)c1ccccn1 (stereo not drawn) [chlorpheniramine maleate] was tested, and the “taste cell response to bitter tasting compound” value (mud puppy taste cells) was “increase in intracellular calcium concentration”.

CC[N+](CC)(CC(=O)Nc1c(C)cccc1C)Cc1ccccc1 [denatonium benzoate] was tested, and the “taste cell response to bitter tasting compound” value (mud puppy taste cells) was “increase in intracellular calcium concentration”.

COc1ccc2c(c1)[C@]13CCCC[C@@H]1[C@H](C2)N(C)CC3 [dextromethorphan] was tested, and the “taste cell response to bitter tasting compound” value (mud puppy taste cells) was “increase in intracellular calcium concentration”.

For C=C1[C@@H](O)[C@@H]2O[C@]3(CC[C@H](/C=C/[C@@H](C)[C@@H]4CC(C)=C[C@@]5(O[C@H](C[C@@](C)(O)C(=O)O)CC[C@H]5O)O4)O3)CC[C@H]2O[C@@H]1[C@@H](O)C[C@H](C)[C@H]1O[C@@]2(CCCCO2)CC[C@H]1C [okadaic acid], the “effect … to denatonium benzoate” value (mud puppy taste cells) was “has no effect on response” and the “effect … to dextromethorphan” value (mud puppy taste cells) was “has no effect on response”.

With O=C(O)CP(=O)(O)O [phosphonic acetic acid] the “effect … to denatonium benzoate” value (mud puppy taste cells) was “small reduction in response” and the “effect … to dextromethorphan” value (mud puppy taste cells) was “small reduction in response”.

For N[C@@H](Cc1ccc(OP(=O)(O)O)cc1)C(=O)O [phosphotyrosine], the “time until complete dephosphorylation of substrate 1” value ([3]; pig taste tissue 41 ug/ml protein, room temperature, final concentration 10 nmoles/ml) was 7 min, the “effect on tyrosine phosphatase activity” value [2] was “inhibit the dephosphorylation” and the “effect on taste cell response to chlorpheniramine maleate” value (mud puppy taste cells; inhibitor mixed with chlorpheniramine maleate) was “decreases the response”. The “effect … to denatonium benzoate” value (mud puppy taste cells) was “decreases the response” and the “effect … to dextromethorphan” value (mud puppy taste cells) was “decreases the response”.

In the case of [Na+].[Na+].[Na+].[O]=[V]([O-])([O-])[O-] [sodium orthovanadate], the “% Total Phosphatase Activity” value ([3]; Peptide Substrate 1) was 32%, the “% Total Phosphatase Activity” value ([3]; Peptide Substrate 2) was 46% and the “time until complete dephosphorylation of substrate 1” value ([3]; pig taste tissue 41 ug/ml protein, room temperature, final concentration 100 nmoles/ml) was 7 min. The “effect on tyrosine phosphatase activity” value [2] was “inhibits the tyrosine phosphatase activity” and the “effect … to denatonium benzoate” value (mud puppy taste cells) was “inhibits the response”.
